Measurements: US6869589B1, “Cryptate compounds and methods for diagnosis and therapy” (Australian Nuclear Science & Technology Organization, priority 1999, dated 2005)

Assay: Biodistribution of ^64Cu complexes in balb/c mice
Conditions: if the ligand detaches from the antibody
Protocol: The biodistribution of the ^64Cu complexes of compounds (1), (3) and (4) (0.10 ml intravenous injection) were evaluated in balb/c mice (5 animals per time point) at 3, 5, 10, 15, 20 and 30 minute time intervals. Biodistribution studies were performed in duplicate.

Structure (SMILES) | Clearance of the complex (biodistribution, in words)
NC12CNCCNCC(N)(CNCCNC1)CNCCNC2 [compound (1)] | clear rapidly from the system
NC12C[N]3CC[N]4CC5(NCc6ccc([N+](=O)[O-])cc6)C[N]6CC[N](C1)[Cu]3461[N](CC[N]1C5)C2 [compound (2)] | clear rapidly from the system
